In PubChem BioAssay (NCI):
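Values below derive from 48-hour exposures of cells grown in 96-well plates, with endpoints linearly interpolated between the two concentrations bracketing the appropriate inhibition level. Definition used: TGI = concentration required for complete inhibition of growth.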

Assays:
Experiment in all cases: NCI anticancer screen, dose series, 48 h
786-0 renal = test system: 786-0 renal
A549 NSCLC = test system: A549 NSCLC
ACHN renal = test system: ACHN renal
CCRF-CEM leukemia = test system: CCRF-CEM leukemia
COLO 205 colon = test system: COLO 205 colon
DLD-1 colon = test system: DLD-1 colon
DMS 114 small cell lung = test system: DMS 114 small cell lung
DMS 273 small cell lung = test system: DMS 273 small cell lung
EKVX NSCLC = test system: EKVX NSCLC
HCC-2998 colon = test system: HCC-2998 colon
HCT-116 colon = test system: HCT-116 colon
HCT-15 colon = test system: HCT-15 colon
HL-60(TB) leukemia = test system: HL-60(TB) leukemia
HOP-62 NSCLC = test system: HOP-62 NSCLC
IGROV1 ovarian = test system: IGROV1 ovarian
K-562 leukemia = test system: K-562 leukemia
KM12 colon = test system: KM12 colon
KM20L2 colon = test system: KM20L2 colon
LOX IMVI melanoma = test system: LOX IMVI melanoma
LXFL 529 NSCLC = test system: LXFL 529 NSCLC
M14 melanoma = test system: M14 melanoma
M19-MEL melanoma = test system: M19-MEL melanoma
MALME-3M melanoma = test system: MALME-3M melanoma
MOLT-4 leukemia = test system: MOLT-4 leukemia
NCI-H23 lung = test system: NCI-H23 lung
NCI-H460 lung = test system: NCI-H460 lung
NCI-H522 lung = test system: NCI-H522 lung
OVCAR-3 ovarian = test system: OVCAR-3 ovarian
OVCAR-5 ovarian = test system: OVCAR-5 ovarian
OVCAR-8 ovarian = test system: OVCAR-8 ovarian
RPMI-8226 leukemia = test system: RPMI-8226 leukemia
RXF 393 renal = test system: RXF 393 renal
SF-268 CNS = test system: SF-268 CNS
SF-295 CNS = test system: SF-295 CNS
SF-539 CNS = test system: SF-539 CNS
SK-MEL-2 melanoma = test system: SK-MEL-2 melanoma
SK-MEL-28 melanoma = test system: SK-MEL-28 melanoma
SK-MEL-5 melanoma = test system: SK-MEL-5 melanoma
SK-OV-3 ovarian = test system: SK-OV-3 ovarian
SN12C renal = test system: SN12C renal
SNB-19 CNS = test system: SNB-19 CNS
SNB-78 CNS = test system: SNB-78 CNS
SR leukemia = test system: SR leukemia
SW-620 colon = test system: SW-620 colon
TK-10 renal = test system: TK-10 renal
U251 CNS = test system: U251 CNS
UACC-257 melanoma = test system: UACC-257 melanoma
UACC-62 melanoma = test system: UACC-62 melanoma
UO-31 renal = test system: UO-31 renal
A498 renal = test system: A498 renal
HOP-92 NSCLC = test system: HOP-92 NSCLC
HT29 colon = test system: HT29 colon
NCI-H226 lung = test system: NCI-H226 lung
RXF-631 renal = test system: RXF-631 renal
BT-549 breast = test system: BT-549 breast
CAKI-1 renal = test system: CAKI-1 renal
DU-145 prostate = test system: DU-145 prostate
HS 578T breast = test system: HS 578T breast
MCF7 breast = test system: MCF7 breast
MDA-MB-231 breast = test system: MDA-MB-231 breast
MDA-MB-435 = test system: MDA-MB-435
MDA-N = test system: MDA-N
NCI/ADR-RES ovarian = test system: NCI/ADR-RES ovarian
OVCAR-4 ovarian = test system: OVCAR-4 ovarian
PC-3 prostate = test system: PC-3 prostate
SNB-75 CNS = test system: SNB-75 CNS
T-47D breast = test system: T-47D breast
HOP-18 NSCLC = test system: HOP-18 NSCLC

Measured: TGI

Nc1nc(N)c(N=O)c(Nc2ccc(I)cc2)n1
55.2 µM: RXF 393 renal
61 µM: OVCAR-5 ovarian
49.2 µM: SN12C renal
52.3 µM: SK-MEL-28 melanoma
62.1 µM: TK-10 renal
25.8 µM: IGROV1 ovarian
36.7 µM: HL-60(TB) leukemia
70.1 µM: UACC-257 melanoma
78.3 µM: MALME-3M melanoma
88.2 µM: HCC-2998 colon
51.1 µM: HOP-62 NSCLC
65.9 µM: MOLT-4 leukemia
82.5 µM: NCI-H23 lung
76.1 µM: SR leukemia
56.6 µM: M14 melanoma
89.9 µM: CCRF-CEM leukemia
26.3 µM: SK-MEL-5 melanoma
21.6 µM: DLD-1 colon
49.7 µM: DMS 273 small cell lung
39.2 µM: SK-OV-3 ovarian
96.7 µM: HCT-15 colon
29.9 µM: NCI-H522 lung
80.6 µM: KM20L2 colon
> 100 µM: 786-0 renal | A549 NSCLC | ACHN renal | EKVX NSCLC | K-562 leukemia | KM12 colon | M19-MEL melanoma | NCI-H460 lung | OVCAR-8 ovarian | RPMI-8226 leukemia | SNB-19 CNS | SW-620 colon | U251 CNS | UO-31 renal
64.9 µM: DMS 114 small cell lung
37.9 µM: UACC-62 melanoma
66.6 µM: SNB-78 CNS
43.7 µM: OVCAR-3 ovarian
51.6 µM: LOX IMVI melanoma
60.6 µM: LXFL 529 NSCLC
43.5 µM: HCT-116 colon
74.1 µM: SF-268 CNS
33.2 µM: COLO 205 colon
34.1 µM: SK-MEL-2 melanoma
67.9 µM: SF-295 CNS
70.4 µM: SF-539 CNS

O=P(O)(O)C1CCCC(P(=O)(O)O)N1 (configuration not stated)
not listed: 786-0 renal | COLO 205 colon | DLD-1 colon | HCC-2998 colon | HCT-15 colon | K-562 leukemia | LOX IMVI melanoma | LXFL 529 NSCLC | MALME-3M melanoma | OVCAR-3 ovarian | RPMI-8226 leukemia | SF-539 CNS | SK-MEL-2 melanoma | SK-MEL-5 melanoma | SN12C renal | SW-620 colon | UACC-62 melanoma | BT-549 breast | CAKI-1 renal | DU-145 prostate | HS 578T breast | MCF7 breast | MDA-MB-231 breast | MDA-MB-435 | MDA-N | NCI/ADR-RES ovarian | OVCAR-4 ovarian | PC-3 prostate | SNB-75 CNS | T-47D breast | HOP-18 NSCLC
> 100 µM: all other assays above

CCN(CC)CCOC(=O)CCN1CC2CCC(CC2)C1
not listed: DLD-1 colon | DMS 114 small cell lung | DMS 273 small cell lung | HOP-62 NSCLC | KM20L2 colon | LXFL 529 NSCLC | M19-MEL melanoma | SF-268 CNS | SN12C renal | SNB-78 CNS | RXF-631 renal | HOP-18 NSCLC
> 100 µM: all other assays above

Cc1nc2ccccc2c(=O)n1NC(=S)Nc1cccc(Cl)c1
not listed: DMS 114 small cell lung | EKVX NSCLC | HCC-2998 colon | KM20L2 colon | OVCAR-3 ovarian | SNB-19 CNS | SNB-78 CNS | RXF-631 renal | BT-549 breast | DU-145 prostate | HS 578T breast | MCF7 breast | MDA-MB-231 breast | MDA-MB-435 | MDA-N | NCI/ADR-RES ovarian | PC-3 prostate | T-47D breast
> 100 µM: all other assays above
